Laboratory results as given in ChEMBL document CHEMBL5674860, “Optimized Dual-Glo Assay to identify co-culture-induced drug vulnerabilities in 3D CRC models” (2024).

Columns and labels:
Assay type in all cases: functional, Homo sapiens
Set-up in all cases: dose or concentration left out as unconfirmed
Colon cancer organoid [1] = assay: Optimized Dual-Glo assay to identify co-culture induced drug vulnerabilities using donated chemical probes and chemogenomics kinase set in O06 CRC organoid and F06 CAF mono and co-culture. […] Cell viability is reported both mono and co-culture models.
Colon cancer organoid [2] = assay: Optimized Dual-Glo assay to identify co-culture induced drug vulnerabilities using donated chemical probes and chemogenomics kinase set in O20 CRC organoid and F20 CAF mono and co-culture. […] Cell viability is reported both mono and co-culture models.
Colon cancer organoid [3] = assay: Optimized Dual-Glo assay to identify co-culture induced drug vulnerabilities using donated chemical probes and chemogenomics kinase set in O14 CRC organoid and F14 CAF mono and co-culture. […] Cell viability is reported both mono and co-culture models.
[4] = Culture type Co-Culture, Transduced with Lucferase2-P2A-EGFP lentivirus
[5] = Culture type Co-Culture, Transduced with Renilla-dsRed lentivirus
[6] = Culture type Mono-Culture, Transduced with Lucferase2-P2A-EGFP lentivirus
[7] = Culture type Mono-Culture, Transduced with Renilla-dsRed lentivirus

| Compound | Cell Viability (Colon cancer organoid [1]; [4]) | Cell Viability (Colon cancer organoid [1]; [5]) | Cell Viability (Colon cancer organoid [1]; [6]) | Cell Viability (Colon cancer organoid [1]; [7]) | Cell Viability (Colon cancer organoid [2]; [4]) | Cell Viability (Colon cancer organoid [2]; [5]) | Cell Viability (Colon cancer organoid [2]; [6]) | Cell Viability (Colon cancer organoid [2]; [7]) | Cell Viability (Colon cancer organoid [3]; [4]) | Cell Viability (Colon cancer organoid [3]; [5]) | Cell Viability (Colon cancer organoid [3]; [6]) | Cell Viability (Colon cancer organoid [3]; [7]) |
| --- | --- | --- | --- | --- | --- | --- | --- | --- | --- | --- | --- | --- |
| O=C(O)CNC(=O)c1c(O)c2ccccc2n(Cc2ccccc2)c1=O | 145.736% | 124.036% | 103.118% | 94.3602% | 96.4355% | 149.859% | 78.6397% | 102.057% | 94.5212% | 101.447% | 96.8462% | 89.4149% |
| CCn1cc(-c2cccc(C(F)(F)F)c2)c2sc(C(=N)NC3CCS(=O)(=O)CC3)cc2c1=O | 95.4713% | 165.165% | 69.4061% | 200.249% | 60.6992% | 124.144% | 95.8372% | 109.255% | 120.643% | 201.969% | 99.2111% | 135.353% |
| Cc1cc(NC(=O)c2cccc(S(F)(F)(F)(F)F)c2)cc(-n2ccn3nc(-c4cccnc4)cc23)c1 [BAY-309] | 84.4525% | 147.367% | 49.1708% | 77.7093% | 122.672% | 127.793% | 129.399% | 97.9255% | 98.153% | 84.8781% | 155.954% | 76.6739% |
| CCOc1cc(N2CCC(O)CC2)ccc1Nc1ncc2c(n1)N(C)c1ccccc1C(=O)N2C | 85.6087% | 128.987% | 73.5863% | 165.88% | 81.7751% | 117.331% | 65.2469% | 115.42% | 76.0009% | 186.577% | 84.1713% | 122.992% |
| Cc1sc2c(c1C)C(c1ccc(Cl)cc1)=N[C@@H](CC(=O)OC(C)(C)C)c1nnc(C)n1-2 | 24.0633% | 301.325% | 25.9077% | 273.458% | 11.0659% | 145.881% | 17.1066% | 37.2064% | 21.0352% | 390.207% | 21.1376% | 218.603% |
| Cc1c(NC(=O)c2ccc(C(C)(C)C)cc2)cccc1-c1cn(C)c(=O)c(Nc2ccc(C(=O)N3CCOCC3)cc2)n1 | 105.279% | 113.435% | 83.7541% | 97.4758% | 109.579% | 88.3582% | 122.68% | 92.088% | 85.4676% | 81.7664% | 100.184% | 91.8671% |
| CC(=O)C1=C(C)N(c2cccc(C(F)(F)F)c2)C(=O)N[C@@H]1c1ccc(C#N)nc1 [BAY-678] | 128.432% | 162.784% | 110.704% | 89.9312% | 140.099% | 133.591% | 110.356% | 85.3396% | 126.5% | 123.101% | 84.3173% | 104.156% |
| FC(F)c1nc2ccccc2n1-c1nc(N2CCOCC2)nc(N2CCOCC2)n1 [ZSTK-474] | 29.4296% | 101.088% | 21.0208% | 93.8001% | 123.987% | 95.7276% | 79.3506% | 60.5776% | 66.4922% | 94.4439% | 94.5351% | 81.6405% |
| CNC(=O)c1ccccc1Nc1cc(Nc2ccc(N3CCOCC3)cc2OC)ncc1C(F)(F)F [VS-4718] | 52.8737% | 57.2971% | 31.5838% | 48.5863% | 13.8337% | 72.4438% | 12.23% | 46.798% | 33.8151% | 68.2368% | 15.2403% | 46.526% |
| Cc1c(Oc2ccc(F)cc2)c(OC(C)C)nn1-c1ccc(C2CC2)cn1 [IPP/CNRS-A019] | 92.46% | 90.9232% | 83.1676% | 103.472% | 91.1919% | 118.396% | 98.5803% | 101.782% | 97.1985% | 110.863% | 115.046% | 92.4816% |
| CCOc1cc(N2CCC(O)CC2)ccc1Nc1ncc2c(n1)N(C1CCCC1)CCC(=O)N2C | 80.3618% | 151.464% | 49.5621% | 184.932% | 51.9112% | 144.517% | 36.2832% | 127.288% | 86.8191% | 245.351% | 52.078% | 149.574% |
| O=C1c2ccc(Nc3ccc(F)cc3F)cc2CCc2ccc(OC[C@H](O)CO)cc21 [Skepinone-L] | 115.343% | 88.0925% | 155.18% | 90.6486% | 88.3042% | 86.6611% | 113.922% | 95.9781% | 150.905% | 93.4936% | 165.429% | 90.897% |
| Clc1cccc(-c2nnnn2Cc2cccnc2)c1Cl | 143.79% | 176.132% | 116.081% | 109.73% | 106.259% | 101.74% | 98.4532% | 98.284% | 106.43% | 104.512% | 115.794% | 81.6635% |
| COCCN1CCC(c2cc(CN(C)C(=O)c3cccc(Oc4ccccc4)c3)ccn2)CC1 | 91.2389% | 131.922% | 95.8918% | 124.805% | 94.1045% | 115.605% | 130.999% | 103.56% | 94.0691% | 112.751% | 102.019% | 112.74% |
| Cc1cc(CN)cc(C)c1-c1ncn(C)c1-c1ccnc2cc(F)ccc12.Cl | 105.057% | 123.721% | 137.219% | 129.63% | 143.957% | 87.6481% | 139.188% | 92.4746% | 87.6168% | 103.014% | 105.617% | 97.8671% |
| Cc1cc(F)c(C(=O)Nc2cccc(-c3nncn3C(C)C)n2)cc1-n1cnc(C2CC2)c1 [SELONSERTIB] | 89.6649% | 105.018% | 105.834% | 92.1767% | 141.674% | 89.2485% | 97.5113% | 87.9562% | 131.466% | 127.666% | 127.2% | 83.0493% |
| CC(=O)c1cc(-c2cc(C(=O)NC3CC3)ccc2C)c2ncccn12 | 95.4153% | 118.795% | 58.2009% | 132.016% | 68.1057% | 121.421% | 109.894% | 113.039% | 100.15% | 126.848% | 106.827% | 109.242% |
| Cn1cc(-c2[nH]c3cc(NC(=O)[C@H](N)C4CCCCC4)cc4c3c2C=NNC4=O)cn1 | 9.334% | 180.436% | 3.761% | 107.077% | 23.152% | 172.741% | 12.2596% | 94.31% | 1.93% | 159.115% | 4.927% | 82.9355% |
| O=C(c1ccc(F)c(F)c1Nc1ccc(I)cc1F)N1CC(O)([C@@H]2CCCCN2)C1 [COBIMETINIB] | 5.143% | 42.4292% | 6.053% | 35.0976% | 4.023% | 77.761% | 4.662% | 37.2771% | 2.787% | 24.389% | 1.583% | 12.612% |
